Key:
Type in all cases: cell-based, human
D54-MG-GFP cells = experiment: time-lapse motility assay in BK concentration gradient, D54-MG-GFP; conditions: for cells moved towards increasing BK concentration: BK gradient in presence of antagonist, cells moving in random fashion; for directionality of movement: antagonist in addition to BK
Experimental: Time-lapse studies were performed using a stably transfected daughter cell line from D54-MG cells that express EGFP, previously generated in the lab (Habela et al., 2009) and U251-EGFP cell line to visualize cells as they migrate. Increased motility was tested using an Ibidi chemotaxis chamber that is commercially available from Ibidi Scientific (Ibidi GmbH, Martinsried, Germany), and which has been used in previous studies (Kronlage et al., 2010; Fabian et al., 2010) with D54-EGFP MG cells seeded. Liquid chemical gradients were established in the μ-channel of the μ-chamber as follows: the dye Patent Blue V Blue Sodium Salt (1 mg/ml in medium) was mixed with equivolume of medium+/−1 mM stock of BK+/−1 mM stocks of HOE-140 or BZ; half of the volume was loaded in the well at one side of the μ-channel, and the identical volume was then aspirated from the well on the other side of the μ-channel. This created concentration gradient easily visualized by the dye. 12-15 different positions along the concentration gradient were imaged every 5 minutes over 5 hours period on a Zeiss Axiovert 200M system equipped with a Zeiss micro-incubation chamber that maintains cells at constant temperature (37° C.) and 95%/5% CO2/O2 for extended periods of time. We obtained images from different sections using 20× objective and FITC filter, along with DIC images. 500× neutral density filters and capture images using Axiovision software and a digital Axiocam HR 1 megapixel camera in 2*2 binning mode was used. Data was analyzed using the imaging tools provided by National Institutes of Health Image J and Tracking, and Chemotaxis and Migration Tool plugins (Jacobelli et al., 2009; Coller et al., 2009; Kronlage et al., 2010; Fabian et al., 2010) by randomly selecting 15 cells for each field of view. Cells treated with BK+/−antagonists were compared with controls where only dye was added. These experiments were repeated in triplicates.
As calcium dynamics are often correlated with cell motility time-lapse studies were performed using a stably transfected daughter cell line from D54-MG cells that expresses GFP to visualize cells as they migrate (FIG. 3A). Increased motility was tested in μ-slides in which a BK concentration gradient can be maintained.

D54-MG-GFP glioma cells = experiment: Transwell migration assay; conditions: antagonist 1 μM with BK, 5 h
Experimental: The day before the experiment was performed, ˜70% confluent dishes of cells were prepared. Transwell migration Fluoroblock cell culture inserts (BD Biosciences, San Jose, Calif.) with 8 μm pores were coated overnight with Vitronectin (BD Biosciences, San Jose, Calif.) at a concentration of 5 μg/ml in PBS. The following day, inserts were blocked with 1% fatty acid-free bovine serum albumin for 1 h. Inserts were then washed two times in PBS, and 400 μl of Migration Assay Buffer (MAB, 0.1% fatty acid-free bovine serum albumin in serum-free media) was added to the bottom of each well. Cells were rinsed once in PBS and were lifted off the dish by the addition of 0.5 mm EGTA. Cells were rinsed twice by centrifugation and resuspended in MAB and counted. Forty thousand cells were plated on the top of each filter and allowed to adhere for 30 min before drug was added. When BK+/−antagonists was added to the filters, it was added only to the bottom of the filter for chemotaxis. For migration assay, D54-EGFP MG cells were allowed to migrate for 5 hours, washed with PBS, fixed with 4% paraformaldehyde 15 minutes at room temperature, washed thrice and counterstained with DAPI for 5 minutes at room temperature. Invasion assay was performed similarly. Matrigel cell cultured inserts (BD Biosciences, San Jose, Calif.) with 8 μm pores were pretreated Vitronectin and blocked as described above. […] The number of nuclei that migrated through pores was counted. All counts per treatment were averaged and SE values were calculated. […]
To investigate the hypothesis that BK promotes glioma migration in vitro, we used Transwell migration assay which conveniently permit examination of cell migration across a membrane barrier with 8 μm pores towards vitronectin, a chemo-attractant extracellular matrix protein. This frequently used assay allows a quantitative study of drug effects with regards to drugs acting as motogens or as chemo-attractants. […]

[1] = system: MMP gelatinase activity of D54 MG cells; experiment: in-situ zymography of gelatinolytic MMP activity (DQ gelatin); conditions: BK plus B2R antagonist
Experimental: To assess gelatinolytic MMP activity we used in situ zymography, as described previously (Deshane J et al, 2003). Briefly, after cell nuclei were labeled with Hoechst dye, fluorescein isothiocyanate-labeled DQ gelatin with BK+/−antagonists (Molecular Probes, Eugene, Oreg.) was applied overnight on the coverslips plated with D54 MG cells. Coverslips where drugs were omitted were processed in parallel and used as controls. At the end of the incubation period, cells were photographed by fluorescence microscopy with a Zeiss Axiovert 200 M microscope using a 20× objective. Quantification of fluorescent staining intensity after background subtraction was done using Slidebook 4.2 software (Intelligent Imaging Innovations, Denver, Colo.). Experiments were repeated three times.
To investigate the hypothesis that BK promotes glioma migration in vitro, we used Transwell migration assay which conveniently permit examination of cell migration across a membrane barrier with 8 μm pores towards vitronectin, a chemo-attractant extracellular matrix protein. This frequently used assay allows a quantitative study of drug effects with regards to drugs acting as motogens or as chemo-attractants. D54-MG-GFP glioma cells were allowed to migrate for 5 h in the presence/absence of neuroligands. […] Next, we tested glioma cell migration in various BK concentrations. […]

SMILES	cells moved towards increasing BK concentration (D54-MG-GFP cells)	directionality of movement (D54-MG-GFP cells)	BK-induced increase in cells migrating through the pores (D54-MG-GFP glioma cells)	MMP activity (fluorescence of DQ gelatin) [1]
CN(C)CCN(C)CCNC(=O)[C@@H]1CCCN1S(=O)(=O)c1ccc(NNC(=S)NC(c2ccccc2)c2ccccc2)c([N+](=O)[O-])c1 [Bradyzide]	6/15	failed to show any directionality of movement	eliminated	reduction of the fluorescence back to control levels
N=C(N)NCCCC(NC(=O)[C@H](N)CCCNC(=N)N)C(=O)N1CCC[C@H]1C(=O)N1C[C@H](O)C[C@H]1C(=O)NCC(=O)N[C@@H](Cc1cccs1)C(=O)N[C@@H](CO)C(=O)N1Cc2ccccc2C[C@@H]1C(=O)N1C2CCCCC2C[C@H]1C(=O)N[C@H](CCCNC(=N)N)C(=O)O (stereo partly drawn) [HOE-140, D-Arg-[Hyp^3, Thi^5, D-Tic^7, Oic^8]bradykinin]	8/15	failed to show any directionality of movement	eliminated	reduction of the fluorescence back to control levels

— patent publication US20140248291A1, “Modulation of Cellular Migration” (THE UAB RESEARCH FOUNDATION, priority 2011, published 2014)
